In one assay the target is T1, FsnR (Stenotrophomonas maltophilia, UniProt B2FQU0).
T1 construct: gene Smlt2299; full length, recombinant from E. coli BL21(DE3), C-terminal His6 or GST tag (GST cleaved on column); Red NHS labelled for MST
Put plainly: microscale thermophoresis (MST). The format is binding. The settings on record: PBS buffer; labelled protein.

For a further assay, the target named is T2, RavS (Stenotrophomonas maltophilia, UniProt B2FQW5).
T2 construct: gene Smlt2324; recombinant from E. coli BL21(DE3), C-terminal His6 or GST tag (GST cleaved); phosphorylated His503; labelled for MST
T2 sequence (B2FQW5 entry or part of it): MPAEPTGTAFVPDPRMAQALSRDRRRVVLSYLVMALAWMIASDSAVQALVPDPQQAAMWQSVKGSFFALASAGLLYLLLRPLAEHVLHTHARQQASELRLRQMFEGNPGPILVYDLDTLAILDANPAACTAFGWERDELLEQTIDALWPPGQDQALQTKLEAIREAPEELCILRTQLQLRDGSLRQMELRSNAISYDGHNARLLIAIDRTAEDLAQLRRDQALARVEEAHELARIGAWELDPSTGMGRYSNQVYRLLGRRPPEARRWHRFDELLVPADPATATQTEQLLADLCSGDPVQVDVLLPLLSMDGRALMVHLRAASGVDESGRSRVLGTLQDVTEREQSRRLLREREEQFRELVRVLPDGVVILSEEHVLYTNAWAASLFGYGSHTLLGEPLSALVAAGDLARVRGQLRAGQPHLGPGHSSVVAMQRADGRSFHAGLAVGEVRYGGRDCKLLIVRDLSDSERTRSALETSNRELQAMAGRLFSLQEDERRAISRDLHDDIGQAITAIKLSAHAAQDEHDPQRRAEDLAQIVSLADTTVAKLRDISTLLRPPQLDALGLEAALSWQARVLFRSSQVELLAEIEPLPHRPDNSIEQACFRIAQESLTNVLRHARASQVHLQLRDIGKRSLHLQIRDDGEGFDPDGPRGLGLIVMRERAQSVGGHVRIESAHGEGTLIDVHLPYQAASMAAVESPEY
Put plainly: microscale thermophoresis (MST). It is filed as binding. To be noted: PBS buffer; 20 nM fluorescein-labeled RavS. (MST reads how a fluorescent partner responds to local heating, with and without ligand.)

As usually defined, the Kd is a measure of binding affinity in units of concentration. A lower Kd goes with a tighter complex.

T1 sequence (B2FQU0 entry or part of it): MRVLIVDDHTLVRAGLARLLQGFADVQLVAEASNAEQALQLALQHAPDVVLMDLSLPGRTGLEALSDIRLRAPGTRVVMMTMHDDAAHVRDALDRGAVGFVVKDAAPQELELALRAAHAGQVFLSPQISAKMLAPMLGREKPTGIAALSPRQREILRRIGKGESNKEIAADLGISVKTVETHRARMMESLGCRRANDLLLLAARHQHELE

Regarding `Nc1nc2c(ncn2[C@@H]2O[C@@H]3CO[P@](=O)(O)O[C@H]4[C@@H](O)[C@H](n5cnc6c(=O)[nH]c(N)nc65)O[C@@H]4CO[P@](=O)(O)O[C@H]3[C@H]2O)c(=O)[nH]1` [c-di-GMP], the Kd was determined as 3430 ± 1360 nM at FsnR and 1480 ± 360 nM at RavS.

For the origin of these results see article PMC9600515, “Dual Regulatory Role Exerted by Cyclic Dimeric GMP To Control FsnR-Mediated Bacterial Swimming” (mBio, 2022).
